Square brackets hold non-standard residues; d marks the D form. Peptide text beside a SMILES is read from it. ξ: configuration not given here. Ile(3ξ) = CCC(C)[C@H](N)C(=O)O
Target: T1, Pituitary adenylate cyclase-activating polypeptide (Rattus norvegicus, UniProt P13589)
T1 sequence (P13589 whole entry): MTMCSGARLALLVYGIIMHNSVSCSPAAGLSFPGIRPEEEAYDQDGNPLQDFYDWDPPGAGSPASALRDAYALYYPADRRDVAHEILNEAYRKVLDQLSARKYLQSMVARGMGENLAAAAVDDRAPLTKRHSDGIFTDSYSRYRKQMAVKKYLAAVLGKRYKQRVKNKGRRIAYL

Molecule | Ki [nM]
Nc1nc2c(ncn2C2OC(COP(=O)(O)OP(=O)(O)OP(=O)(O)S)C(O)C2O)c(=O)[nH]1 (stereo unspecified) [CAS_444121] | 40
CC[C@H](C)[C@H](NC(=O)CNC(=O)[C@H](CC(=O)O)NC(=O)[C@H](CO)NC(=O)[C@@H](N)Cc1cnc[nH]1)C(=O)N[C@@H](Cc1ccccc1)C(=O)N[C@H](C(=O)N[C@@H](CC(=O)O)C(=O)N[C@@H](CO)C(=O)N[C@@H](Cc1ccc(O)cc1)C(=O)N[C@@H](CO)C(=O)N[C@@H](CCCN=C(N)N)C(=O)N[C@@H](Cc1ccc(O)cc1)C(=O)N[C@@H](CCCN=C(N)N)C(=O)N[C@@H](CCCCN)C(=O)N[C@@H](CCC(N)=O)C(=O)N[C@@H](CCSC)C(=O)N[C@@H](C)C(=O)N[C@H](C(=O)N[C@@H](CCCCN)C(=O)N[C@@H](CCCCN)C(=O)N[C@@H](Cc1ccc(O)cc1)C(=O)N[C@@H](CC(C)C)C(N)=O)C(C)C)[C@@H](C)O [PACAP(1-23)] | 1000
Nc1nc2c(ncn2[C@H]2O[C@@H](COP(=O)(O)O)[C@H](O)[C@@H]2O)c(=O)[nH]1 [NSC_6804] | > 10000
CC[C@H](C)[C@H](NC(=O)[C@H](CO)NC(=O)[C@H](CC(N)=O)NC(=O)[C@H](CC(C)C)NC(=O)[C@H](Cc1ccc(O)cc1)NC(=O)[C@H](CCCCN)NC(=O)[C@H](CCCCN)NC(=O)[C@@H](NC(=O)[C@H](C)NC(=O)[C@H](CCSC)NC(=O)[C@H](CCC(N)=O)NC(=O)[C@H](CCCCN)NC(=O)[C@H](CCCN=C(N)N)NC(=O)[C@H](CC(C)C)NC(=O)[C@H](CCCN=C(N)N)NC(=O)[C@@H](NC(=O)[C@H](Cc1ccc(O)cc1)NC(=O)[C@H](CC(N)=O)NC(=O)[C@H](CC(=O)O)NC(=O)[C@@H](NC(=O)[C@H](Cc1ccccc1)NC(=O)[C@@H](NC(=O)[C@H](C)NC(=O)[C@H](CC(=O)O)NC(=O)[C@H](CO)NC(=O)[C@@H](N)Cc1cnc[nH]1)C(C)C)[C@@H](C)O)[C@@H](C)O)C(C)C)C(=O)N[C@@H](CC(C)C)C(=O)N[C@@H](CC(N)=O)C(=O)O [CAS_37221-79-7] | 1000
CCC(C)[C@H](NC(=O)CNC(=O)[C@H](CC(=O)O)NC(=O)[C@H](CO)NC(=O)[C@@H](N)Cc1cnc[nH]1)C(=O)N[C@@H](Cc1ccccc1)C(=O)N[C@H](C(=O)N[C@@H](CC(=O)O)C(=O)N[C@@H](CO)C(=O)N[C@@H](Cc1ccc(O)cc1)C(=O)N[C@@H](CO)C(=O)N[C@@H](CCCN=C(N)N)C(=O)N[C@@H](Cc1ccc(O)cc1)C(=O)N[C@@H](CCCN=C(N)N)C(=O)N[C@@H](CCCCN)C(=O)N[C@@H](CCC(N)=O)C(=O)N[C@@H](CCSC)C(=O)N[C@@H](C)C(=O)N[C@H](C(=O)N[C@@H](CCCCN)C(=O)N[C@@H](CCCCN)C(=O)N[C@@H](Cc1ccc(O)cc1)C(=O)N[C@@H](CC(C)C)C(=O)N[C@@H](C)C(=O)N[C@@H](C)C(=O)N[C@H](C(=O)N[C@@H](CC(C)C)C(=O)NCC(=O)N[C@@H](CCCCN)C(=O)N[C@@H](CCCN=C(N)N)C(=O)N[C@@H](Cc1ccc(O)cc1)C(=O)N[C@@H](CCCCN)C(=O)N[C@@H](CCC(N)=O)C(=O)N[C@@H](CS)C(N)=O)C(C)C)C(C)C)[C@@H](C)O (stereo partly specified) [PACAP(1-33,Cys34)] | 6.4
CCC(C)[C@H](NC(=O)CNC(=O)[C@@H](N)CC(=O)O)C(=O)N[C@@H](Cc1ccccc1)C(=O)N[C@H](C(=O)N[C@@H](CC(=O)O)C(=O)N[C@@H](CO)C(=O)N[C@@H](Cc1ccc(O)cc1)C(=O)N[C@@H](CO)C(=O)N[C@@H](CCCN=C(N)N)C(=O)N[C@@H](Cc1ccc(O)cc1)C(=O)N[C@@H](CCCN=C(N)N)C(=O)N[C@@H](CCCCN)C(=O)N[C@@H](CCC(N)=O)C(=O)N[C@@H](CCSC)C(=O)N[C@@H](C)C(=O)N[C@H](C(=O)N[C@@H](CCCCN)C(=O)N[C@@H](CCCCN)C(=O)N[C@@H](Cc1ccc(O)cc1)C(=O)N[C@@H](CC(C)C)C(=O)N[C@@H](C)C(=O)N[C@@H](C)C(N)=O)C(C)C)[C@@H](C)O (stereo partly specified) [PACAP(3-25)] (H-DG[Ile(3ξ)]FTDSYSRYRKQMAVKKYLAA-NH2) | 1000
Nc1nc2c(ncn2[C@@H]2O[C@H](COP(=O)(O)OP(=O)(O)OP(=O)(O)O)C(O)C2O)c(=O)[nH]1 (stereo partly specified) [+ 1 mM GTP] | 600
H-HSDGIFTDSYSRYRKQMAVKKYLNSILN-NH2 [PACAP(1-23),VIP(24-28)] | 3.1
CC[C@H](C)[C@H](NC(=O)CNC(=O)[C@H](CC(=O)O)NC(=O)[C@H](CO)NC(=O)[C@@H](N)Cc1cnc[nH]1)C(=O)N[C@@H](Cc1ccccc1)C(=O)N[C@H](C(=O)N[C@@H](CC(=O)O)C(=O)N[C@@H](CO)C(=O)N[C@@H](Cc1ccc(O)cc1)C(=O)N[C@@H](CO)C(=O)N[C@@H](CCCNC(=N)N)C(=O)N[C@@H](Cc1ccc(O)cc1)C(=O)N[C@@H](CCCNC(=N)N)C(=O)N[C@@H](CCCCN)C(=O)N[C@@H](CCC(N)=O)C(=O)N[C@@H](CCSC)C(=O)N[C@@H](C)C(=O)N[C@H](C(=O)N[C@@H](CCCCN)C(=O)N[C@@H](CCCCN)C(=O)N[C@@H](Cc1ccc(O)cc1)C(=O)N[C@@H](CC(C)C)C(=O)N[C@@H](C)C(=O)N[C@@H](C)C(=O)N[C@H](C(=O)N[C@@H](CC(C)C)C(=O)NCC(=O)N[C@@H](CCCCN)C(=O)N[C@@H](CCCNC(=N)N)C(=O)N[C@@H](Cc1ccc(O)cc1)C(=O)N[C@@H](CCCCN)C(=O)N[C@@H](CCC(N)=O)C(=O)N[C@@H](CCCNC(=N)N)C(=O)N[C@H](C(=O)N[C@@H](CCCCN)C(=O)N[C@@H](CC(N)=O)C(=O)N[C@@H](CCCCN)C(N)=O)C(C)C)C(C)C)C(C)C)[C@@H](C)O [PACAP] | 1.9
CC[C@H](C)[C@H](NC(=O)CNC(=O)[C@H](CCC(=O)O)NC(=O)[C@H](CO)NC(=O)[C@@H](N)Cc1cnc[nH]1)C(=O)N[C@@H](Cc1ccccc1)C(=O)N[C@H](C(=O)N[C@@H](CC(=O)O)C(=O)N[C@@H](CO)C(=O)N[C@@H](Cc1ccc(O)cc1)C(=O)N[C@@H](CO)C(=O)N[C@@H](CCCNC(=N)N)C(=O)N[C@@H](Cc1ccc(O)cc1)C(=O)N[C@@H](CCCNC(=N)N)C(=O)N[C@@H](CCCCN)C(=O)N[C@@H](CCC(N)=O)C(=O)N[C@@H](CCSC)C(=O)N[C@@H](C)C(=O)N[C@H](C(=O)N[C@@H](CCCCN)C(=O)N[C@@H](CCCCN)C(=O)N[C@@H](Cc1ccc(O)cc1)C(=O)N[C@@H](CC(C)C)C(=O)N[C@@H](C)C(=O)N[C@@H](C)C(=O)N[C@H](C(=O)N[C@@H](CC(C)C)C(N)=O)C(C)C)C(C)C)[C@@H](C)O [PACAP(1-27)] | 4.7
Nc1nc2c(ncn2C2OC(COP(O)(=S)OP(=O)(O)O)C(O)C2O)c(=O)[nH]1 (stereo unspecified) [NSC_196042] | 340

Reference: BindingDB's records for doi:10.1111/j.1432-1033.1991.tb16455.x (Georg-August-University, 1991)
